The test system of one series is HIV-1. The series can be described thus: Anti-viral activity: inhibition of HIV proliferation in H9 (reverse transcriptase activity) and Sup T1 (syncytium formation) cell lines. The series is classed as cell-based. The conditions noted are these: concentration at which the proliferation of HIV is inhibited by 50%, H9 or Sup T1 cells, cell line not stated. The protocol: 1 x 10^5 cells of each of H9(ATCC HTB 176) and Sup T1 cell lines were added to the wells of a 24-well microtiter plate and the compound of the present invention was added thereto in various concentrations. 200 TCID50(200-fold of 50% tissue culture infection dose) of HIV-1 inoculum and rpmi-1640 medium(Sigma Chemical Co., U.S.A) were added successively to the wells and the plate was incubated at 37°C. In case of Sup T1, the number of syncytium formed was investigated after 3 to 9 days.
In the case of H9, three-quarters(3/4) of the culture medium was refreshed every 3 days. After 9 days, 6ml of the culture fluid was centrifuged at 1000rpm for 10 minutes. To 5ml of the resulting supernatant were added 2.5ml of 30% polyethylene glycol(PEG, M.W. 6000-8000) and 0.4M NaCl. The resulting solution was allowed to stand at 0°C overnight to precipitate virus particles. The solution was centrifuged at 2000rpm for 45 minutes, the supernatant was discarded therefrom and the precipitate was diluted with 20ml of a reverse transcriptase suspension buffer(50mM tris-HCl(Sigma), pH 7.5, 1mM dithiothreitol, 20% glycerol, 0.25M KCl and 0.25% Triton X-100). The resulting suspension was stored in an Effendorf tube at -70°C until use. A cycle of freezing the above virus suspension for 2 minutes in dry ice and thawing it at 37°C for 2 minutes was repeated three times and the resulting suspension was centrifuged at 4°C. The resulting supernatant was used in carrying out the reverse transcriptase assay.
10µl of the above virus suspension was added to a solution prepared by mixing: 10µl of buffer solution(250mM tris-HCl, pH 7.5, 37.5mM MgCl2, 0.25% triton X-100), 1.2µl of 200mM dithiothreitol, 5µl of 10µM oligo(dT)-poly(A)(Boeringer Mannheim, 12-18 oligomer), 1µl(1µCi) of ^3H-TTP(thymidinetriphosphate) and 23.6µl of water; and the resulting mixture was kept at 37°C. […] The amount of radioactivity was counted using a liquid scintillation counter.

Series [1] can be described thus: Cytotoxicity by trypan blue dye exclusion. Particulars: human, h9 or sup t1 cells; concentration at which 50% of the cells die; 0.1µM to 100µM tested; cell line not stated; read-out: CT50 (the source's name). In kind it is cell-based. The protocol:
(§1) To determine the cytotoxicity of the compound of the present invention, 0.1µM to 100µM of the compound was added to H9 cell or Sup T1 cell and the mixture was cultured on a rpmi-1640 medium at 37°C. The medium was refreshed every 3 days and the extent of cell proliferation was observed using Hemacytometer according to the trypan blue dye exclusion technique which is well known in the art. CT50(i.e., the concentration at which 50% of the cells die) was determined.

For another series, the target named is T1, HIV-1 protease (Human immunodeficiency virus type 1 group M subtype B, UniProt P04585).
T1 construct: adding 2.6nM of HIV-1 protease to the preincubation solution
The series is classed as biochemical. The conditions noted are these: KINSIM/FITSIM analysis.

For another series, the system named is H9 cell or Sup T1 cell. Briefly: Cytotoxicity by trypan blue dye exclusion. In kind it is cell-based. Particulars: human, h9 or sup t1 cells. The protocol:
as §1

Description for HIV-1 protease: To a buffer solution comprising 50mM sodium acetate, pH 5.5, 1mM dithiothreitol(DTT), 1mM ethylenediaminetetraacetate (EDTA), 0.75M ammonium sulfate and 0.1% NP40(NONIDET P-40; Sigma Chemical Co., U.S.A.), was added a pre-determined amount of the compound obtained in Example to prepare a preincubation solution having a known concentration of the compound. The inhibition reaction was initiated by adding 2.6nM of HIV-1 protease to the preincubation solution. 10µl samples of the reaction solution were taken at a given time interval and each sample was added to 80µl of assay solution containing 100µM of reaction substrate in the same buffer solution as above to assay for the residual enzyme activity. […] The reaction rate was determined by subjecting both the substrate before the reaction and the product after the reaction to HPLC separation and then measuring the amount of the product relative to the substrate, using the strong absorbance of (p-NO2)-Phe at 280nm. The decrease in the enzyme activity with time was measured for each sample and the natural logarithmic values(ln) of the data points in a given experiment were plotted against time to obtain a linear correlation line. kobs was then calculated from the slope of the line.
The inhibition constant was calculated according to the following equation: (1)/(kobs)=(1)/(kina)+(KI)/(kina)(1)/([I]) [formula] wherein: kobs is a rate constant representing the rate of decrease in enzyme activity in the presence of the inhibitor, kina is a rate constant representing the rate of the irreversible covalent bond formation between the enzyme and the inhibitor (in Michaelis-Menten complex), KI is an inhibition constant represented by the equilibrium constant for the formation of the Michaelis-Menten complex from an enzyme and an inhibitor, and [I] designates the inhibitor concentration.
The inhibition constants KI, the rate constant kina and the second order rate constant kina/KI were tabulated by inputting the value of [E]/([E]+[EI]+[EI'] [formula] ) into KINSIM/FITSIM program.

For the compound `CC(C)c1nc(CN(C)C(=O)N[C@H](C(=O)N[C@@H](Cc2ccccc2)C[C@H](O)[C@H](Cc2ccccc2)NC(=O)OCc2cncs2)C(C)C)cs1` [ABI-538], the IC50 with HIV-1 was found to be 53 nM.
Compound `CC(C)(C)NC(=O)[C@@H]1CN(Cc2cccnc2)CCN1C[C@@H](O)C[C@@H](Cc1ccccc1)C(=O)N[C@H]1c2ccccc2C[C@H]1O` [MK-639, reference compound] yielded an IC50 in the series with HIV-1 (Human immunodeficiency virus 1) of 10 nM. Moreover, the CC50 in series [1] worked out at 10000 nM.
The compound “[(5S)-[(N-isopropyloxycarbonyl)-β-methanesulfonyl-L-valinyl]amino]-(4R, 3S)-epoxy-6-phenyl-1-hexanoyl]-[(2S)-(1-phenyl-3-methyl-1-oxo)butylamino]amide [compound of the present invention]” had an IC50 in the series on HIV-1 of 15 nM. Affinity at HIV-1 protease (inhibition constant, 2.6nM HIV-1 protease, pH 5.5) was put at a Ki of 12 nM. For the same compound, the kina on HIV-1 protease (rate constant of irreversible covalent bond formation between enzyme and inhibitor) was found to be 3.2 min⁻¹. For the same compound, the kina/KI on HIV-1 protease (second order rate constant) was 2.7 x 10^7 min^-1M^-1. The compound also registered a CC50 in the series on H9 cell or Sup T1 cell of 10000 nM.

These data come from EP0770606A1, “Cis-epoxide derivate useful as irreversible HIV protease inhibitor and process for its preparation” (LG Chemical Limited, priority 1995, dated 1997).
